Source: ChEMBL document CHEMBL1143362, “Development of dual-acting prodrugs for circumventing multidrug resistance” (Bioorg Med Chem Lett, 2009)
The source made the active and inactive calls. No cut-off for these calls is given here.

Experiments:
MT3 [1] = assay: Potentiation of doxorubicin-induced cytotoxicity in adriablastin-resistant human MT3 cells expressing p-glycoprotein xenografted in NMRI nude mouse at 5 mg/kg, ip administered on day 12, 13, 19, 20 prior to doxorubicin challenge of 6 mg/kg, iv on day 13 and 20; format: functional, organism-based
Mus musculus [2] = assay: Toxicity in NMRI nude mouse xenografted with adriablastin-resistant human MT3 cells expressing p-glycoprotein assessed as body weight loss at 5 mg/kg, ip administered on day 12, 13, 19, 20 prior to doxorubicin challenge of 6 mg/kg, iv on day 13 and 20; format: organism-based; settings: in vivo
Mus musculus [3] = assay: Toxicity in nude mouse assessed as body weight change at 100.8 mg/kg, iv measured daily for 13 days; format: organism-based; set-up: dose 100.8 mg/kg, route intravenous; settings: in vivo, 312 h
MT3 [4] = assay: Antitumor activity against adriablastin-resistant human MT3 cells expressing p-glycoprotein xenografted in NMRI nude mouse at 6 mg/kg, iv administered on day 13 and 20; format: functional, organism-based; set-up: dose 6 mg/kg

SMILES: CCOC/C=C/c1ccc(-c2nc(-c3ccc(N(C)C)cc3)c(-c3ccc(NC(=O)CCN)cc3)[nH]2)cc1
- Activity (MT3 [1]): Active
- Activity (Mus musculus [2]): -23%

SMILES: CCOC/C=C/c1ccc(-c2nc(-c3ccc(N(C)C)cc3)c(-c3ccc(NC(=O)CCNC(=O)OCc4ccc(NC(=O)[C@H](CCCCN)NC(=O)[C@H](Cc5ccccc5)NC(=O)CC[C@H](NC(=O)CCCCCN5C(=O)C=CC5=O)C(=O)N[C@@H](Cc5ccccc5)C(=O)N[C@@H](CCCCN)C(=O)Nc5ccc(COC(=O)N[C@H]6C[C@H](O[C@H]7C[C@@](O)(C(=O)CO)Cc8c(O)c9c(c(O)c87)C(=O)c7c(OC)cccc7C9=O)O[C@@H](C)[C@H]6O)cc5)cc4)cc3)[nH]2)cc1.O=C(O)C(F)(F)F.O=C(O)C(F)(F)F
- Activity (Mus musculus [3]): Non-toxic

SMILES: COc1cccc2c1C(=O)c1c(O)c3c(c(O)c1C2=O)C[C@@](O)(C(=O)CO)C[C@@H]3O[C@H]1C[C@H](N)[C@H](O)[C@H](C)O1
- Activity (MT3 [4]): inactive
